Test results published in patent publication US9217156B2, “Non human animal model for ulcerative colitis and its main complications” (Institut National de la Sante et de la Recherche Medicale …, priority 2012, dated 2015).

Assays:
[1] = tested on: WT and Nox1^KO mice; experiment: Tunicamycin (ERS inducer)-induced colitis in WT and Nox1 KO mice; type: in vivo; conditions: mice overexpressing goblet cells (Nox1^KO) versus WT mice
[2] = tested on: IL10/Nox1^dKO mice; experiment: Salubrinal treatment of spontaneous colitis in IL10/Nox1 dKO mice; type: in vivo
Description: To assess the pathogenic role of goblet cells in UC, WT and Nox1^KO mice were subjected to oral administration of DSS or rectal administration of TNBS. […] IRE1beta and ATF6alpha branch signaling were extended in colonic epithelial cells as evidenced by the increased XBP-1 mRNA splicing, the induction of GRP78, GRP94, PDI at both mRNA and protein levels, and dilated cisternae and gross distortion of the ER in goblet cells. […] Consistent with reduced eIF2α phosphorylation, increased expression of PPP1R15A/GADD34, a stress-inducible protein that recruits the catalytic subunit of protein phosphatase 1 and promotes eIF2alpha dephosphorylation, was detected in agreement with our previous data in humans^1. EIF2alpha phosphorylation is cytoprotective during ERS, because cells are sensitized to cell death when this pathway is genetically ablated^33 and protected when it is ectopically enforced^34. To test whether a selective pharmacological inhibitor of GADD34-mediated eIF2alpha dephosphorylation may alleviate colitis, IL10/Nox1^dKO mice were treated with 1 mg/kg salubrinal^35 for up to three weeks.

[3] = IL10/Nox1^dKO mice, 1 mg/kg for up to three weeks
[4] = salubrinal-treated IL10/Nox1^dKO mice

tunicamycin
severity of colitis induced by tunicamycin treatment [1]: significantly induced a more severe colitis in mice overexpressing goblet cells than in WT mice

O=C(/C=C/c1ccccc1)NC(NC(=S)Nc1cccc2cccnc12)C(Cl)(Cl)Cl (centres unmarked) [salubrinal]
immune cell infiltration [2, 3]: markedly prevented
mucosal architecture and goblet cells [2, 3]: restored intact mucosal architecture with normal goblet cells
apoptosis of colonic mucosa ([2]; IL10/Nox1^dKO mice, 1 mg/kg for up to three weeks, at least in part via CHOP expression): protected colonic mucosa against apoptosis
eIF2alpha phosphorylation in colonic mucosa ([2]; IL10/Nox1^dKO mice, 1 mg/kg for up to three weeks, mainly detected in colonic epithelial cells): caused robust eIF2alpha phosphorylation
Grp78/Bip and Grp94 expression [2, 4]: trend toward reduced
amount of colonic and splenic Treg cells [2, 4]: strongly decreased to baseline
levels of proinflammatory cytokines [2, 4]: strongly decreased to baseline
